From ChEMBL document CHEMBL1143710, “Synthesis, antifungal and antimicrobial activity of alkylphospholipids” (Bioorg Med Chem, 2007)
Converted amounts (≈) assume the structure as drawn. The source made the active and inactive calls. The rule behind the calls is not given here.

Legend:
Escherichia coli = assay: Antibacterial activity against Escherichia coli ATCC 25922 after 24 hrs; format: functional; conditions: ATCC 25922, 24 h
[1] = Toxicity assessed as haemolytic activity against human erythrocytes at 175 uM; format: cell-based, Erythrocyte; conditions: read-out: Activity
[2] = Toxicity assessed as haemolytic activity against human erythrocytes at 17.5 uM; format: cell-based, Erythrocyte; conditions: read-out: Activity
Staphylococcus aureus [3] = assay: Antibacterial activity against Staphylococcus aureus ATCC 25923 after 24 hrs; format: functional; conditions: ATCC 25923, 24 h
[4] = target: T1, Phospholipase B (Cryptococcus neoformans) (UniProt Q9P8P2); assay: Inhibition of phospholipase B activity of Cryptococcus neoformans var. grubi H99 secreted PLB1 by radiometric assay method
T1 sequence (whole entry): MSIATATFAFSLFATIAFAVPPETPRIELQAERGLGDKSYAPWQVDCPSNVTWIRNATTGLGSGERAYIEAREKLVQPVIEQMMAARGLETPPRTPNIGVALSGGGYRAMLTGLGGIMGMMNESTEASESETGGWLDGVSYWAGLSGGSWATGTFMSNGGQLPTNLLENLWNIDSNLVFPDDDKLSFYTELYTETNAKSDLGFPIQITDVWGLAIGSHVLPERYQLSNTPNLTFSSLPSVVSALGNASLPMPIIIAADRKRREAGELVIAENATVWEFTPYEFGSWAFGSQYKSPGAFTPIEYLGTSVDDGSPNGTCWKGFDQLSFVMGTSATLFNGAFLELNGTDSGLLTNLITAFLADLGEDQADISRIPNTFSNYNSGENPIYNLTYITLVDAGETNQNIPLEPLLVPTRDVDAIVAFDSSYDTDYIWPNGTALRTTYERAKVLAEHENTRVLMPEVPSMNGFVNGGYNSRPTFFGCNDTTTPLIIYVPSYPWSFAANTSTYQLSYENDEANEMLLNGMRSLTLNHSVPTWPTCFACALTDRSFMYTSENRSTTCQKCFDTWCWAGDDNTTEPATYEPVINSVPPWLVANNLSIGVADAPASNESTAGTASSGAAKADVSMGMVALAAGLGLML

Cryptococcus neoformans = assay: Antifungal activity against Cryptococcus neoformans ATCC 90112; format: functional
[5] = Toxicity assessed as haemolytic activity against human erythrocytes at 88 uM; format: cell-based, Erythrocyte; conditions: read-out: Activity
Candida albicans = assay: Antifungal activity against Candida albicans ATCC 10231; format: functional
[6] = target: T1, Phospholipase B (Cryptococcus neoformans); assay: Inhibition of […] activity of Cryptococcus neoformans var. grubi H99 secreted PLB1 at 25 uM by radiometric assay method
[7] = Toxicity assessed as haemolytic activity against human erythrocytes at 44 uM; format: cell-based, Erythrocyte; conditions: read-out: Activity
Enterococcus = assay: Antibacterial activity against vancomycin-resistant Enterococcus ATCC 51299 after 24 hrs; format: functional; conditions: ATCC 51299, 24 h
[8] = Toxicity assessed as haemolytic activity against human erythrocytes at 3.5 uM; format: cell-based, Erythrocyte; conditions: read-out: Activity
Staphylococcus aureus [9] = assay: Antibacterial activity against methicillin-resistant Staphylococcus aureus after 24 hrs; format: functional
Pseudomonas aeruginosa = assay: Antibacterial activity against Pseudomonas aeruginosa ATCC 27853 after 24 hrs; format: functional; conditions: ATCC 27853, 24 h
[10] = target: T1, Phospholipase B (Cryptococcus neoformans); assay: Inhibition of […] activity of Cryptococcus neoformans var. grubi H99 secreted PLB1 at 250 uM by radiometric assay method
[11] = target: T1, Phospholipase B (Cryptococcus neoformans); assay: Inhibition of lysophosphatidic acid acyltransferase activity of Cryptococcus neoformans var. grubi H99 secreted PLB1 at 25 uM by radiometric assay method
Streptococcus pneumoniae = assay: Antibacterial activity against Streptococcus pneumoniae ATCC 46919 after 24 hrs; format: functional; conditions: ATCC 46919, 24 h
[12] = target: T1, Phospholipase B (Cryptococcus neoformans); assay: Inhibition of lysophosphatidic acid acyltransferase activity of Cryptococcus neoformans var. grubi H99 secreted PLB1 at 250 uM by radiometric assay method
[13] = Toxicity assessed as haemolytic activity against human erythrocytes at 350 uM; format: cell-based, Erythrocyte; conditions: read-out: Activity

SMILES	MIC (Escherichia coli) [µM]	hemolysis at 175 µM [1] [%]	hemolysis at 17.5 µM [2] [%]	MIC (Staphylococcus aureus [3]) [µM]	Activity [4]	MIC (Cryptococcus neoformans) [µM]	hemolysis at 88 µM [5] [%]	MIC (Candida albicans) [µM]	Activity [6]	hemolysis at 44 µM [7] [%]	MIC (Enterococcus) [µM]	hemolysis at 3.5 µM [8] [%]	MIC (Staphylococcus aureus [9]) [µM]	MIC (Pseudomonas aeruginosa) [µM]	Activity [10]	Activity [11]	MIC (Streptococcus pneumoniae) [µM]	Activity [12]	hemolysis at 350 µM [13] [%]
CCCCCCCCCNC(=O)CCCCCOP(=O)([O-])OCC[N+](C)(C)C	> 350	0	0	> 350	inactive	> 350	0	> 350	inactive	0	> 350	0	> 350	–	–	–	–	–	–
CCCCCCCCCCCCCCCCOP(=O)([O-])OCC[N+](C)(C)C [MILTEFOSINE]	> 350	95	0	44 (≈ 17.9 µg/mL)	–	2.75 (≈ 1.12 µg/mL)	25	5.5 (≈ 2.24 µg/mL)	inactive	5	44 (≈ 17.9 µg/mL)	0	22 (≈ 8.97 µg/mL)	> 600	Active	Active	11 (≈ 4.48 µg/mL)	Active	100
CCCCCCCCCCCCCCCCCCOP(=O)([O-])OCC[N+](C)(C)C [OCTADECYLPHOSPHONOCHOLINE]	> 350	100	0	22 (≈ 9.58 µg/mL)	–	1.4 (≈ 0.61 µg/mL)	92	1.4 (≈ 0.61 µg/mL)	inactive	60	–	0	22 (≈ 9.58 µg/mL)	–	Active	–	–	Active	100
CCCCCCCC/C=C\CCCCCCCCCCCCOP(=O)([O-])OCC[N+](C)(C)C [ERUFOSINE]	> 350	90	0	> 350	–	22 (≈ 10.8 µg/mL)	15	44 (≈ 21.5 µg/mL)	–	0	11 (≈ 5.39 µg/mL)	0	22 (≈ 10.8 µg/mL)	–	–	–	–	–	100
C[N+](C)(C)CCOP(=O)([O-])OCCCCCC(=O)NC12CC3CC(CC(C3)C1)C2	–	–	–	–	–	> 350	–	> 350	–	–	–	–	–	–	–	–	–	–	–
CN[C@H](CC(C)C)C(=O)N[C@H]1C(=O)N[C@@H](CC(N)=O)C(=O)N[C@H]2C(=O)N[C@H]3C(=O)N[C@H](C(=O)N[C@H](C(=O)O)c4cc(O)cc(O)c4-c4cc3ccc4O)[C@H](O)c3ccc(c(Cl)c3)Oc3cc2cc(c3O[C@@H]2O[C@H](CO)[C@@H](O)[C@H](O)[C@H]2O[C@H]2C[C@](C)(N)[C@H](O)[C@H](C)O2)Oc2ccc(cc2Cl)[C@H]1O [VANCOMYCIN]	–	–	–	–	–	–	–	–	–	–	0.7 (≈ 1.01 µg/mL)	–	–	–	–	–	–	–	–
CCCCCCCCCCCCCCCCCC(=O)NCC(COP(=O)([O-])OCC[N+](C)(C)C)OC (stereo unspecified)	> 350	100	0	44 (≈ 23.6 µg/mL)	–	22 (≈ 11.8 µg/mL)	56	5.5 (≈ 2.95 µg/mL)	–	5	22 (≈ 11.8 µg/mL)	0	11 (≈ 5.9 µg/mL)	–	–	–	–	–	100
CCCCCCCC/C=C/CCCCCCCCOP(=O)([O-])OCC[N+](C)(C)C [ELAIDYLPHOSPHOCHOLINE]	> 350	100	0	22 (≈ 9.54 µg/mL)	–	2.75 (≈ 1.19 µg/mL)	50	2.75 (≈ 1.19 µg/mL)	–	0	22 (≈ 9.54 µg/mL)	0	22 (≈ 9.54 µg/mL)	–	–	–	–	–	100
C[C@@H]1[C@H](O)[C@@H](C)/C=C/C=C/C=C/C=C/C=C/C=C/C=C/[C@H](O[C@@H]2O[C@H](C)[C@@H](O)[C@H](N)[C@@H]2O)C[C@@H]2O[C@](O)(C[C@@H](O)C[C@@H](O)[C@H](O)CC[C@@H](O)C[C@@H](O)CC(=O)O[C@H]1C)C[C@H](O)[C@H]2C(=O)O [AMPHOTERICIN B]	–	–	–	–	–	0.54 (≈ 0.499 µg/mL)	–	0.54 (≈ 0.499 µg/mL)	–	–	–	–	–	–	–	–	–	–	–
CCCCC(CC)CNC(=O)CCCCCOP(=O)([O-])OCC[N+](C)(C)C (stereo unspecified)	> 350	0	0	> 350	–	> 350	0	> 350	–	0	> 350	0	> 350	–	–	–	–	–	–
CCCCCCCCCCCCCCCCCCOCC(COP(=O)([O-])OCC[N+](C)(C)C)OC (stereo unspecified) [EDELFOSINE]	> 350	100	0	44 (≈ 23 µg/mL)	–	> 350	83	5.5 (≈ 2.88 µg/mL)	–	13	–	0	11 (≈ 5.76 µg/mL)	–	–	–	–	–	100
CC(C)[C@H](NC(=O)CCCCCOP(=O)([O-])OCC[N+](C)(C)C)C(N)=O	–	0	0	–	–	> 350	0	> 350	–	0	–	0	–	–	–	–	–	–	0
CCCCCCCCCCCCCCCCCCOP(=O)([O-])OCC[P+](C)(C)C	–	100	2	–	–	2.75 (≈ 1.24 µg/mL)	97	2.75 (≈ 1.24 µg/mL)	inactive	40	–	0	–	–	Active	–	–	Active	–
CCCCCCCCCCCCOP(=O)([O-])OCC[N+](C)(C)C	–	0	0	–	inactive	175 (≈ 61.5 µg/mL)	0	350 (≈ 123 µg/mL)	inactive	0	–	0	–	–	–	–	–	–	–
CC1(C)S[C@@H]2[C@H](NC(=O)[C@H](N)c3ccc(O)cc3)C(=O)N2[C@H]1C(=O)O [AMOXICILLIN]	22 (≈ 8.04 µg/mL)	–	–	0.7 (≈ 0.256 µg/mL)	–	–	–	–	–	–	–	–	–	–	–	–	–	–	–
CCCCCCCCCOC(=O)CCCCCOP(=O)([O-])OCC[N+](C)(C)C	–	0	0	–	–	175 (≈ 74.1 µg/mL)	0	> 350	–	0	–	0	–	–	–	–	–	–	–
CCCCCCCCCCCCCCCCCCOCC(O)COP(=O)([O-])OCC[N+](C)(C)C (stereo unspecified)	> 350	100	0	22 (≈ 11.2 µg/mL)	–	88 (≈ 44.9 µg/mL)	86	> 350	–	10	11 (≈ 5.61 µg/mL)	0	11 (≈ 5.61 µg/mL)	–	–	–	–	–	100
